In EP3564214B1, “INDAZOLE DERIVATIVES AS MODULATORS OF THE CANNABINOID SYSTEM” (Universita' Degli Studi G. D'annunzio Chieti - Pescara, priority 2018, dated 2019):
Like-named read-outs stand apart in the source and are kept apart here.

Experiments:
[1] = molecular target: CB receptor-associated G-proteins; assay: Ligand stimulated [35S]GTPγS binding assay in rat brain membrane homogenate; type: biochemical; conditions: for EC50: [35S]GTPγS binding; for EC50 / Emax (%) ±SEM: rat brain membranes; for Emax (%) ±SEM: specific [35S]GTPγS binding, basal set as 100%; for G-protein stimulation (functional character): rat brain membrane homogenate
Experimental: (§1) Wistar rats were locally bred and handled according to the European Communities Council Directives (86/609/ECC) and the Hungarian Act for the Protection of Animals in Research (XXVlll.tv. Section 32). Crude membrane fractions were prepared from the brain without cerebellum. Brains were quickly removed from the euthanized rats and directly put in ice-cold 50 mM Tris-HCl buffer (pH 7.4). The collected tissue was then homogenized in 30 volumes (v/w) of ice-cold buffer with a Braun Teflon-glass homogenizer at the highest rpm. The homogenate was centrifuged at 20,000 g for 25 min and the resulting pellet was suspended in the same volume of cold buffer followed by incubation at 37°C for 30 min to remove endogenous ligands. Centrifugation was then repeated. The final pellets were taken up in five volumes of 50 mM Tris-HCl (pH 7.4) buffer containing 0.32 M sucrose and stored at -80°C. Prior to the experiment, aliquots were thawed and centrifuged at 20,000 g for 25 min and the were resuspended in 50 mM Tris-HCl (pH 7.4), homogenized with a Dounce in followed by the determination of the protein concentration by the method of Bradford.
(§2) Rat brain membranes (30 µg protein/tube) prepared as described above, were incubated with 0.05 nM [^35S]GTPγS (PerkinElmer) and 10^-10-10^-5 M unlabeled ligands in the presence of 30 µM GDP, 100 mM NaCl, 3 mM MgCl2 and 1 mM EGTA in 50 mM Tris-HCl buffer (pH 7.4) for 60 min at 30°C. Basal [^35S]GTPγS binding was measured in the absence of ligands and set as 100%. Nonspecific binding was determined by the addition of 10 µM unlabeled GTPγS and subtracted from total binding. Incubation, filtration and radioactivity measurement of the samples were carried out as described above.
(§3) Results are expressed as means ± S.E.M. of at least three independent experiments each performed in duplicate. In competition binding studies, the inhibitory constants (Ki) were calculated from the inflection points of the displacement curves using non-linear least-square curve fitting and the Cheng- Prusoff equation. All data and curves were analyzed by GraphPad Prism 5.0 (San Diego, CA, USA). In [^35S]GTPγS binding studies, data were expressed as the percentage stimulation of the specific [^35S]GTPγS binding over the basal activity and are given as means ± S.E.M. Each experiment was performed in triplicate and analyzed with sigmoid dose-response curve fitting to obtain potency (EC50) and efficacy (Emax) values. Statistical comparison was done by analysis of variance (one-way ANOVA) followed by the Bonferroni multiple comparison test of GraphPad Prism 5.0 (San Diego, CA, USA), P< 0.05 was chosen to indicate significant differences.

CB receptors = molecular target: T1, CB receptors (Rattus norvegicus, UniProt P20272); assay: [3H]WIN55212-2 competition binding in rat brain membrane homogenate; conditions: for displace [3H]WIN55212-2: rat brain membrane homogenate
T1 construct: Crude membrane fractions were prepared from the brain without cerebellum; from tissue; host or cells: Wistar rat brain without cerebellum, crude membrane fraction
T1 sequence (P20272 whole entry): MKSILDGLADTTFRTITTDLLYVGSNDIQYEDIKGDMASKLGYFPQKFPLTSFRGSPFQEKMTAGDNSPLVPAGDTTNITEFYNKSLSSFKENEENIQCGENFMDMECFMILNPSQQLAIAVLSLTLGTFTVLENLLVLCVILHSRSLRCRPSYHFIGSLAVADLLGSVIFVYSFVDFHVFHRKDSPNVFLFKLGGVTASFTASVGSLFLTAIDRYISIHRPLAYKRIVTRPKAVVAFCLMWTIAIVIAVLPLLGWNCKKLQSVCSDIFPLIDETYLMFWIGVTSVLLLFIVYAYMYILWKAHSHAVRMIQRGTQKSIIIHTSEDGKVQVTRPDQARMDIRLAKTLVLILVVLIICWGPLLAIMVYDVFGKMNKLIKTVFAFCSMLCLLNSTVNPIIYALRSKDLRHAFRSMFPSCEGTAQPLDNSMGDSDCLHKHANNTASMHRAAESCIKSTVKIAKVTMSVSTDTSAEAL
Experimental: as §1
Binding experiments were performed at 30 °C for 1 h in 50 mM Tris-HCl buffer pH 7.4 containing 2.5 mM EGTA, 5 mM MgCl2 and 0.5 mg/mL fatty acid free BSA in plastic tubes in a total assay volume of 1 mL that contained 0.3-0.5 mg/mL membrane protein.
Non-specific binding was determined in the presence of 10 µM WIN 55212-2. The incubation was terminated by diluting the samples with ice-cold wash buffer (50 mM Tris-HCl, 2.5 mM EGTA, 5 mM MgCl2, 0.5% fatty acid free BSA, pH 7.4), followed by repeated washing and rapid filtration through Whatman GF/B glass fiber filters (Whatman Ltd, Maidstone, England) presoaked with 0.1% polyethyleneimine (30 min before the filtration). Filtration was performed with a 24-well Brandel Cell Harvester (Gaithersburg, MD, USA). Filters were air-dried and immersed into Ultima Gold MV scintillation cocktail and then radioactivity was measured with a TRI-CARB 2100TR liquid scintillation analyzer (Packard).
as §3

CB1 receptor = molecular target: T2, CB1 receptor (Rattus norvegicus, UniProt P20272); assay: CB1/CB2 receptor selectivity by [35S]GTPγS binding assay with rimonabant or AM630; type: biochemical; conditions: compound 10 µM; rimonabant 10 µM (CB1) vs AM630 10 µM (CB2)
T2 construct: Crude membrane fractions were prepared from the brain without cerebellum; from tissue; host or cells: Wistar rat brain without cerebellum, crude membrane fraction
T2 sequence (P20272 whole entry): as above
Experimental: Figures represent the specific binding of the radioligand in percentage in the presence of increasing concentrations (10^-10-10^-5 M) of the indicated ligands. "Total" on the x-axis indicates the total specific binding of the radioligand, which is measured in the absence of the unlabeled compounds. […] Figures represent relative specific binding of [^35S]GTPγS in the presence of increasing concentrations (10^-11-10^-5 M) of the indicated compounds. […] The specific binding of [^35S]GTPγS is represented in percentage in the presence or absence of 10 µM rimonabant (CB1 antagonist/inverse agonist) or AM630 (CB2 antagonist/inverse agonist). Data are expressed as percentage of mean specific binding ± S.E.M. (n≥ 3).
as §2
In the next step the compounds were evaluated for CB1/CB2 receptor selectivity by [^35S]GTPγS binding assays. The G-protein stimulatory effect of compounds LONI 1-LONI 9 (10 µM) was reduced by the CB1 receptor antagonist/inverse agonist rimonabant (10 µM) and by the CB2 receptor antagonist/inverse agonist AM630 (10 µM), and a 3-6-fold selectivity for CB1 receptor was observed.

SMILES | EC50 ([1]; read-out: EC50) [nM] | Emax (%) ±SEM [1] [%] | Ki (CB receptors; 1.5 nM [3H]WIN55212-2, rat brain membranes, mean of three independent measurements (S.E.M. 5-12%), read-out: Ki (nM)*) [nM] | EC50 ([1]; read-out: potency) [nM] | G-protein stimulation (functional character) [1] | Ki (CB receptors) [nM] | selectivity for CB1 receptor (CB1 receptor) [fold] | displace [3H]WIN55212-2 (CB receptors)
CCCCCn1cc(C(=O)c2cccc3ccccc23)c2ccccc21 [JWH-018, reference compound] | 16 | 163 ± 5.2 | 3.5 |  |  |  |  | 
CC(C)(C)[C@H](NC(=O)c1nn(Cc2ccc(Cl)cc2Cl)c2ccccc12)C(=O)O [LONI 1, (S)-2-(1-(2,4-dichlorobenzyl)-1H-indazole-3-carboxamido)-3,3-dimethylbutanoic acid] | 2800 | 84 ± 6.6 |  | 1800 to 3200 | weak inverse agonist activity | 0.08 |  | 
COC(=O)[C@@H](NC(=O)c1nn(Cc2ccc(Cl)cc2Cl)c2ccccc12)C(C)(C)C [LONI 2, (S)-methyl 2-(1-(2,4-dichlorobenzyl)-1H-indazole-3-carboxamido)-3,3-dimethylbutanoate] | 8.4 | 143 ±5.7 |  |  |  | 3.1 |  | 
CC(C)(C)[C@H](NC(=O)c1nn(Cc2ccc(Cl)cc2Cl)c2ccccc12)C(N)=O [LONI 3, (S)-N-(1-amino-3,3-dimethyl-1-oxobutan-2-yl)-1-(2,4-dichlorobenzyl)-1H-indazole-3 carboxamide] | 126 | 139 ± 4.5 |  |  | partial agonists | 17 | 6 | 
CC(C)[C@H](NC(=O)c1nn(Cc2ccc(Cl)cc2Cl)c2ccccc12)C(=O)O [LONI 4, (S)-2-(1-(2,4-dichlorobenzyl)-1H-indazole-3-carboxamido)-3-methylbutanoic aci] | 3290 | 82 ± 10.6 |  | 1800 to 3200 | weak inverse agonist activity | 2.6 | 3 | 
COC(=O)[C@@H](NC(=O)c1nn(Cc2ccc(Cl)cc2Cl)c2ccccc12)C(C)C [LONI 5, (S)-methyl 2-(1-(2,4-dichlorobenzyl)-1H-indazole-3-carboxamido)-3-methylbutanoate] |  | 140 ± 3.7 |  |  |  | 1.8 |  | 
CC(C)[C@H](NC(=O)c1nn(Cc2ccc(Cl)cc2Cl)c2ccccc12)C(N)=O [LONI 6, (S)-N-(1-amino-3-methyl-1-oxobutan-2-yl)-1-(2,4-dichlorobenzyl)-1H-indazole-3-carboxamide] |  | 135 ± 4.9 |  |  | partial agonists | 17 |  | 
CC(C)C[C@H](NC(=O)c1nn(Cc2ccc(Cl)cc2Cl)c2ccccc12)C(=O)O [LONI 7, (S)-2-(1-(2,4-dichlorobenzyl)-1H-indazole-3-carboxamido)-4-methylpentanoic acid] | 1870 | 86 ± 9.3 |  | 1800 to 3200 | weak inverse agonist activity | 43 |  | 
COC(=O)[C@H](CC(C)C)NC(=O)c1nn(Cc2ccc(Cl)cc2Cl)c2ccccc12 [LONI 8, (S)-methyl 2-(1-(2,4-dichlorobenzyl)-1H-indazole-3-carboxamido)-4-methylpentanoate] |  | 122 ± 4.6 |  |  |  | 63 |  | 
CC(C)C[C@H](NC(=O)c1nn(Cc2ccc(Cl)cc2Cl)c2ccccc12)C(N)=O [LONI 9, (S)-N-(1-amino-4-methyl-1-oxopentan-2-yl)-1-(2,4-dichlorobenzyl)-1H-indazole-3-carboxamide] |  | 120 ± 5.9 |  |  | partial agonists | 88 | 6 | 
O=C(O)c1nn(Cc2ccc(Cl)cc2Cl)c2ccccc12 [LONI A, Lonidamine, reference compound] |  |  |  |  | didn't show G-protein stimulation |  |  | neither LONI A nor its derivatives LONI B and LONI C could displace [^3H]WIN55212-2
NC(=O)c1nn(Cc2ccc(Cl)cc2Cl)c2ccccc12 [LONI B, reference compound] | 2780 | 70 ± 8.7 |  |  | weak inverse agonist |  |  | neither LONI A nor its derivatives LONI B and LONI C could displace [^3H]WIN55212-2
COC(=O)c1nn(Cc2ccc(Cl)cc2Cl)c2ccccc12 [LONI C, reference compound] | 3160 | 69 ± 2.6 |  |  | weak inverse agonist |  |  | neither LONI A nor its derivatives LONI B and LONI C could displace [^3H]WIN55212-2
